These results are taken from article PMC9120017, “Inhibition mechanism of the chloride channel TMEM16A by the pore blocker 1PBC” (Nature Communications, 2022).

SMILES strings stand for the structures. Where two headings read alike, the source gives them in different places.

In the experiment the target is T1, mouse TMEM16B (Mus musculus, UniProt Q8CFW1).
T1 construct: expressed in transfected cells; host or cells: HEK293T
T1 sequence (Q8CFW1 1-1002): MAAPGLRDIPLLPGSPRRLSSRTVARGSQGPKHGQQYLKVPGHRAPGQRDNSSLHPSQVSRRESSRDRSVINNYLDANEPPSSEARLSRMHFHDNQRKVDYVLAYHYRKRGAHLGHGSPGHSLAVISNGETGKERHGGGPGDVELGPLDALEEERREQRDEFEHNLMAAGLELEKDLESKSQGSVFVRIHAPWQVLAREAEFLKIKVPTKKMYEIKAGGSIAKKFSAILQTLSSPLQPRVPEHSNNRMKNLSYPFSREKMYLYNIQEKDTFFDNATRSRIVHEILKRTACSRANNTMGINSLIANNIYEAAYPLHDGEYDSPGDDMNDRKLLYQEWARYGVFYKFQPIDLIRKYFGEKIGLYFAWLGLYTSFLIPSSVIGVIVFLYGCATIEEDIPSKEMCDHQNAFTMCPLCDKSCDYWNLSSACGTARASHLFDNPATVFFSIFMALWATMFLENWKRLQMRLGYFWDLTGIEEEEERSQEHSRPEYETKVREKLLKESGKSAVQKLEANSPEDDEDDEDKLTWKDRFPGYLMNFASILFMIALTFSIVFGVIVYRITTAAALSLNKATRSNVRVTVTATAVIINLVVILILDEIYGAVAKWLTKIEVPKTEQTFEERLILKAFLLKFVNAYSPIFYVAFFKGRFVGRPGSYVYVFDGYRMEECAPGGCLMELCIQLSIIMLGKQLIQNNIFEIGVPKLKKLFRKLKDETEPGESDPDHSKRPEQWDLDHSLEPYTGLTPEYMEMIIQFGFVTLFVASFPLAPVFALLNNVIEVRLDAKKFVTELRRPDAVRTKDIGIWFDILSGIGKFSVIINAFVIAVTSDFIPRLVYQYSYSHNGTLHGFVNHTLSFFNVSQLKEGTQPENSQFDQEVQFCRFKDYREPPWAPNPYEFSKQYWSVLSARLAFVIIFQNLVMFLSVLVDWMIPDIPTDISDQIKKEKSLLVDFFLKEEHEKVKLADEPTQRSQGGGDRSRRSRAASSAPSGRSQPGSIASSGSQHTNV
Put plainly: Inside-out patch recording of 1PBC block, TMEM16B. The class given is cell-based. To be noted: 15 µM Ca2+; for remaining activity at 3 µM: 3 µM 1PBC; for remaining activity at 3 µM / remaining activity at 10 µM / remaining activity at 30 µM / remaining activity at 100 µM: read-out: I/Imax; for remaining activity at 10 µM: 10 µM 1PBC; for remaining activity at 30 µM: 30 µM 1PBC; for remaining activity at 100 µM: 100 µM 1PBC. Here is the method:
HEK293T cells (ATCC CRL-1573) were maintained in Dulbecco’s modified Eagle’s medium (DMEM; Sigma-Aldrich) supplemented with 10 U ml^−1 penicillin, 0.1 mg ml^−1 streptomycin (Sigma-Aldrich), 2 mM L-glutamine (Sigma-Aldrich), and 10% FBS (Sigma-Aldrich) in a humidified atmosphere containing 5% CO2 at 37 °C. HEK293S GnTI^− cells (ATCC CRL-3022) were maintained in HyClone HyCell TransFx-H medium (GE Healthcare) supplemented with 10 U ml^−1 penicillin, 0.1 mg ml^−1 streptomycin, 4 mM L-glutamine, 0.15% poloxamer 188 (Sigma-Aldrich), and 1% FBS in an atmosphere containing 5% CO2 at 185 rpm at 37 °C. The ac splice variant of mouse TMEM16A (UniProt ID: Q8BHY3), mouse TMEM16B (UniProt ID: Q8CFW1), or mouse TMEM16F (UniProt ID: Q6P9J9) bearing a 3C cleavage site, a Venus YFP, a Myc tag, and a Streptavidin-binding peptide (SBP) downstream of the open reading frame in a modified pcDNA3.1 vector (Invitrogen) were used as described previously[21],[31]. Mutations were introduced using a modified QuikChange method[58] and were verified by sequencing.
HEK293T cells were transfected with 3–4 μg DNA per 6 cm Petri dish using the calcium phosphate co-precipitation method and were used within 24–96 h after transfection. Recordings were performed on inside-out patches excised from HEK293T cells expressing the construct of interest. Patch pipettes were pulled from borosilicate glass capillaries (O.D. 1.5 mm, I.D. 0.86 mm, Sutter Instrument) and were fire-polished with a microforge (Narishige) before use. Pipette resistance was typically 3–8 MΩ when filled with the recording solutions detailed below. Seal resistance was typically 4 GΩ or higher. Voltage-clamp recordings were made using Axopatch 200B, Digidata 1550, and Clampex 10.7 (Molecular Devices). Analog signals were filtered with the in-built 4-pole Bessel filter at 10 kHz and were digitized at 20 kHz. Solution exchange was achieved using a gravity-fed system through a theta glass pipette mounted on an ultra-fast piezo-driven stepper (Siskiyou). […] All recordings were performed at 20 °C.
A symmetrical ionic condition was used throughout. Stock solution with Ca^2+-EGTA contained 150 mM NaCl, 5.99 mM Ca(OH)2, 5 mM EGTA, and 10 mM HEPES at pH 7.40. Stock solution with EGTA contained 150 mM NaCl, 5 mM EGTA, and 10 mM HEPES at pH 7.40. Free Ca^2+ concentrations were adjusted by mixing the stock solutions at the required ratios calculated using the WEBMAXC program (http://web.stanford.edu/~cpatton/webmaxcS.htm). Patch pipettes were filled with the stock solution with Ca^2+-EGTA, which has a free Ca^2+ concentration of 1 mM. 1PBC (ChemBridge) stock was reconstituted in anhydrous DMSO (Sigma-Aldrich) at 100 mM and stored at −20 °C. Working solutions with 1PBC were prepared by serial dilution. Unless otherwise stated, experiments were performed at a saturating Ca^2+ concentration as shown in Supplementary Table 1 and the primary data were corrected for current rundown as described previously[21],[25].
Concentration-response relations, obtained from the ratio of the I-V plots before and after the application of the blocker, were fitted to the Hill equation,1 I/Imax=1/1+IC50/[blocker]^h where I/Imax is the normalized current responses, IC50 defines the concentration at which inhibition is at its half-maximum, and h is the Hill coefficient.

Take `N#Cc1c(C(F)(F)F)cc(O)n2c1nc1ccccc12` [1PBC]: the “Block of the channel TMEM16B” value is “blocks”. Under “+80 mV”, the remaining activity at 3 µM stood at 55.6%, the remaining activity at 10 µM is 31%, the remaining activity at 30 µM is 16.8% and the remaining activity at 100 µM stood at 7.99%. For the same molecule, where the note is “-80 mV”, the remaining activity at 3 µM was determined as 89.9%, the remaining activity at 10 µM worked out at 70.1%, the remaining activity at 30 µM came to 43.9% and the remaining activity at 100 µM turned out to be 20.5%.
